Values of other authors, collected in patent US4407746A, “Cyclohexyl and phenyl substituted enkephalins” (G. D. Searle & Co., priority 1981, dated 1983).

What was measured:
rat = settings: injected directly into the brain of the rat; Belluzi et al. 1976
[1] = test system: brain opiate receptor sites; settings: partially purified brain opiate receptor sites; Bradberry et al. 1976

methionine enkephalin
analgesic activity (rat): weak, fleeting analgesic activity
binding to brain opiate receptor sites [1]: binds sterospecifically
